Structures are written as SMILES.

From US20180071307A1, “MEDICINAL COMPOSITION FOR ALLEVIATING ENDOMETRIOSIS AND COMPLICATIONS THEREOF AND USE OF THE SAME” (NATIONAL SUN YAT-SEN UNIVERSITY, priority 2016, published 2018) come the findings set out here.

Experiment [1] relates to endometriosis-related pain. Nature of the experiment: mouse model of endometriosis: pressure pain thresholds (mechanical hyperalgesia). The experiment is classed as in vivo, C57BL/6 mice. As to conditions: versus vehicles; for abdominal retraction threshold: day 33 to day 40 (FIG. 9B); for paw withdrawal threshold: hind paw, day 33 to day 40 (FIG. 9C). On the procedure: (§1) Mature (approximately 8-week-old) female C57BL/6 mice were purchased from Harlan Laboratories (Derby, UK) and were allowed to acclimate for 1 week before surgery. Mice were maintained on standard chow and water available ad libitum and were housed in environmentally controlled facilities illuminated between 7:00 AM and 7:00 PM. All the animal procedures were performed in accordance with legal requirements.
(§2) Typically, menstruation was induced in adult donor mice (approximately 8 weeks of age) using a protocol developed as aforemented. In brief, long-term ovariectomized (OVE) mice (day 1) were primed with s.c. injections of 100 ng of estradiol-17β (days 7 to 9), treated with progesterone (P4; Sigma-Aldrich, Dorset, UK) delivered via a SILASTIC implant (Dow Corning Corp, Midland, Mich.) from days 13 to 19, and injected with 5 ng of estradiol-17β in sesame oil on days 13, 14, and 15. Decidualization was induced in one uterine horn using […] of oil (day 15), and endometrial tissue in the process of being shed from the decidualized horn was recovered from mice culled on day 19, 4 hours after P4 withdrawal (removal of pellet) by opening the horn longitudinally in a petri dish and scraping the tissue away from the myometrial layer using a scalpel. The tissue mass was suspended in 0.2 mL of PBS and passed through a 19-gauge needle before being injected i.p. into anesthetized recipient mice (approximately 8 weeks of age) that had been previously ovariectomized and implanted with an estradiol-17β (Sigma-Aldrich) SILASTIC implant (FIG. 6). Tissue from one decidualized donor horn was used to inoculate each recipient mouse (approximately 40 mg tissue/0.2 mL PBS per mouse) on day 19. […]
Pressure pain thresholds were assessed by a commercially available pain evaluation kit (Touch Test® Sensory Evaluators (North Coast Medical Inc., CA, U.S.A.). This pain evaluation kit has different probes (or needles) of different diameters, which were respectively stab the abdomen or the palmar side of the hind paw of mice. Mice were instructed to signal when the stimulus became painful, and observed which size cause painful. Threshold levels (gravity, g) were assessed before and after the test, and the average of three measures were calculated, for evaluating abdominal retraction threshold (g) or paw withdrawal threshold (g) of each mouse. […]

The test system of experiment [2] is effectors of ribosome biogenesis (selected snoRNAs and RPs). Nature of the experiment: qPCR of effectors of ribosome biogenesis in ovarian clear cell carcinoma cells. The experiment is classed as cell-based, human. As to conditions: ES-2 and TOV-21G, following 24 h of treatment. The text has this:
(§3) For anti-ribosome biogenesis assays, including cell growth, cell migration and cell cycle analysis, ovarian clear cells were maintained for five days in culture medium with or without RNA polymerase I inhibitor, CX-5461 (Selleckchem, Houston, Tex.) or GSK2126458 (GlaxoSmithKline, Middlesex, United Kingdom).
(§4) Please refer to FIGS. 4A to 4E, which illustrate that mTOR/c-Myc inhibition suppresses cell growth and mobility of ovarian clear cells according to an embodiment of the present invention. FIG. 4A is depicted to ovarian cancer cell lines, ES-2 and TOV-2IG, treated with the mTOR/c-Myc inhibitor, GSK2126458, at a final concentration of 50 nM. GSK2126458 effects on effectors of ribosome biogenesis were measured by qPCR at the indicated time points. […] FIG. 4B is depicted to GSK2126458 effects on cell growth were assessed via MTT assay. FIG. 4C is depicted to cell mobility measured using wound-healing migration assays. Cells migrating into the detection zone were counted and averaged from eight replicates. […] FIG. 4E is depicted to cell cycle inhibited by GSK2126458 after 48 hours of treatment and analyzed by flow cytometry using propidium iodide DNA staining. […]
(§5) Please refer to FIGS. 5A to 5D, which illustrate that RNA polymerase 1 inhibition suppresses cell growth and mobility of ovarian clear cells. […] FIG. 5B is depicted to CX-5461 effects on cell growth were assessed via MTT assay. […]

The test system of experiment [3] is inflammatory cells (small peritoneal macrophages, neutrophils) in abdominal cavity. Briefly: mouse model of endometriosis: inflammatory cells in abdominal cavity. The experiment is classed as in vivo, C57BL/6 mice. Particulars: comparing with naive, sham and vehicles; for small peritoneal macrophages in abdominal cavity: three weeks of treatment (FIG. 8A); for neutrophils in abdominal cavity: three weeks of treatment (FIG. 8B). On the procedure:
as §1
Typically, menstruation was induced in adult donor mice (approximately 8 weeks of age) using a protocol developed as aforemented. In brief, long-term ovariectomized (OVE) mice (day 1) were primed with s.c. injections of 100 ng of estradiol-17β (days 7 to 9), treated with progesterone (P4; Sigma-Aldrich, Dorset, UK) delivered via a SILASTIC implant (Dow Corning Corp, Midland, Mich.) from days 13 to 19, and injected with 5 ng of estradiol-17β in sesame oil on days 13, 14, and 15. Decidualization was induced in one uterine horn using […] of oil (day 15), and endometrial tissue in the process of being shed from the decidualized horn was recovered from mice culled on day 19, 4 hours after P4 withdrawal (removal of pellet) by opening the horn longitudinally in a petri dish and scraping the tissue away from the myometrial layer using a scalpel. The tissue mass was suspended in 0.2 mL of PBS and passed through a 19-gauge needle before being injected i.p. into anesthetized recipient mice (approximately 8 weeks of age) that had been previously ovariectomized and implanted with an estradiol-17β (Sigma-Aldrich) SILASTIC implant (FIG. 6). Tissue from one decidualized donor horn was used to inoculate each recipient mouse (approximately 40 mg tissue/0.2 mL PBS per mouse) on day 19. In FIG. 6, there are four groups: B, injecting recipient mice with EV once and vehicle of CX-5461 every Monday, Wednesday and Friday for three weeks; GSK, injecting recipient mice with EV once and GSK2126458 on Monday to Friday for three weeks; A, injecting recipient mice with EV once and vehicle of GSK2126458 on Monday to Friday for three weeks; Sham, injecting recipient mice with EV once (no endometriosis, hormone treatment); Naive, mice without endometriosis or treated with any hormone or drug.
[…] E2 (E2, 100 ng/100 μL or 5 ng/100 μL) was diluted in sesame oil. Estradiol valerate (EV, 500 ng/100 μL) was diluted in sesame oil. P4 pellet was fused with progesterone (P4; Sigma-Aldrich, Dorset, UK) delivered via a SILASTIC implant (Dow Corning Corp, Midland, Mich.). […]

The next experiment has as its system ES-2 cells. Nature of the experiment: cell cycle analysis by flow cytometry using propidium iodide DNA staining, ES-2. The experiment is classed as cell-based, human. As to conditions: after 96 h of treatment.
Text: as §3
(§6) Please refer to FIGS. 5A to 5D, which illustrate that RNA polymerase 1 inhibition suppresses cell growth and mobility of ovarian clear cells. FIG. 5A is depicted to cells treated with the RNA polymerase 1 inhibitor, CX-5461, at a final concentration of 25 nM. CX-5461 effects on downstream effectors of ribosome biogenesis were measured by qPCR at the indicated time points. Data were represented as means of triplicates with standard variations. FIG. 5B is depicted to CX-5461 effects on cell growth were assessed via MTT assay. FIG. 5C is depicted to cell mobility measured using wound-healing migration assays. Cells migrating into the detection zone were counted and averaged from eight replicates. FIG. 5D is depicted to treated cells that were analyzed at the indicated time points by flow cytometry using propidium iodide DNA staining.

The test system of the next experiment is endometriosis lesions. Nature of the experiment: mouse model of endometriosis: lesion numbers. The experiment is classed as in vivo, C57BL/6 mice. Particulars: compared to respective vehicle; CX-5461 1.25 mg/100 μL thrice per week, GSK2126458 0.075 mg/100 μL five times per week, three weeks. On the procedure: as §1
as §2, with “scalpel.” for “scalpel. The tissue mass was suspended in 0.2 mL of PBS and passed through a 19-gauge needle before being injected i.p. into anesthetized recipient mice (approximately 8 weeks of age) that had been previously ovariectomized and implanted with an estradiol-17β (Sigma-Aldrich) SILASTIC implant (FIG. 6). Tissue from one decidualized donor horn was used to inoculate each recipient mouse (approximately 40 mg tissue/0.2 mL PBS per mouse) on day 19.”

A further experiment concerns TOV-21G cells. Briefly: cell cycle analysis by flow cytometry using propidium iodide DNA staining, TOV-21G. The experiment is classed as cell-based, human. Particulars: after 96 h of treatment.
Text: as §3, §6

Experiment [4] deals with ovarian clear cell carcinoma cell lines ES-2 and TOV-21G. Briefly: DNA synthesis (BrdU incorporation). As to conditions: after 48 h of treatment. The experiment is classed as cell-based, human.
Text: as §3
(§7) Please refer to FIGS. 4A to 4E, which illustrate that mTOR/c-Myc inhibition suppresses cell growth and mobility of ovarian clear cells according to an embodiment of the present invention. FIG. 4A is depicted to ovarian cancer cell lines, ES-2 and TOV-2IG, treated with the mTOR/c-Myc inhibitor, GSK2126458, at a final concentration of 50 nM. GSK2126458 effects on effectors of ribosome biogenesis were measured by qPCR at the indicated time points. Data were represented as means of triplicates with standard variations. FIG. 4B is depicted to GSK2126458 effects on cell growth were assessed via MTT assay. FIG. 4C is depicted to cell mobility measured using wound-healing migration assays. Cells migrating into the detection zone were counted and averaged from eight replicates. FIG. 4D is depicted to DNA synthesis (BrdU incorporation) of cells influenced by GSK2126458. FIG. 4E is depicted to cell cycle inhibited by GSK2126458 after 48 hours of treatment and analyzed by flow cytometry using propidium iodide DNA staining. The cell cycle of many cells was inhibited and arrested at G1 phase.

Experiment [5] shares this test system. Nature of the experiment: wound-healing migration assay (cell mobility). The experiment is classed as cell-based, human. Particulars: after 48 h of treatment.
Text: as §3, §4, §5

Experiment [6] deals with endometriosis-related pain. Nature of the experiment: mouse model of endometriosis: tunnel entries (overall activity). The experiment is classed as in vivo, C57BL/6 mice. As to conditions: versus vehicles; day 33 to day 40 (FIG. 9A). On the procedure:
as §1
Typically, menstruation was induced in adult donor mice (approximately 8 weeks of age) using a protocol developed as aforemented. In brief, long-term ovariectomized (OVE) mice (day 1) were primed with s.c. injections of 100 ng of estradiol-17β (days 7 to 9), treated with progesterone (P4; Sigma-Aldrich, Dorset, UK) delivered via a SILASTIC implant (Dow Corning Corp, Midland, Mich.) from days 13 to 19, and injected with 5 ng of estradiol-17β in sesame oil on days 13, 14, and 15. […]
On day 33 to day 40, some behavior tests were scored from tunnel entries and pressure pain thresholds. Mice freely moved in three cages connected by tunnels, and numbers of tunnel entered by each mouse were measured in five minutes, and the average of three measures were calculated, for evaluating overall activity of each mouse. […]

Experiment [7] has as its system ovarian clear cell carcinoma cell lines ES-2 and TOV-21G. Nature of the experiment: cell growth via MTT assay. The experiment is classed as cell-based, human. Particulars: after 48 h of treatment.
Text: as §3, §4, §5

Experiment [8] has the same test system. Briefly: cell cycle analysis by flow cytometry using propidium iodide DNA staining (both cell lines, result in words). As to conditions: after 48 hours of treatment (FIG. 4E). The experiment is classed as cell-based, human.
Text: as §3, §7

`Cc1cnc(CNC(=O)c2c(=O)c3ccc(N4CCCN(C)CC4)nc3n3c2sc2ccccc23)cn1` [CX-5461]: in experiment [1], the abdominal retraction threshold entry is “higher” and the paw withdrawal threshold result was “higher”. Further, in experiment [2] (CX-5461 at 25 nM), the “expression of the selected snoRNAs and RPs (qPCR, FIG. 5A)” value was “reduced”. In experiment [2] (FIG. 4A legend: GSK2126458 at 50 nM), the “expression of the selected snoRNAs and RPs (qPCR, FIG. 4A)” value is reported as “reduced”. Moreover, in [3], the “small peritoneal macrophages in abdominal cavity” value is on record as “significantly reduced” and the “neutrophils in abdominal cavity” value is “significantly reduced”. Further, in the experiment with ES-2 cells, the “cell arrest at G2/M-phase” value is given as 48.1% and the cell death came out at 12.3%. Also, in the experiment with endometriosis lesions, the lesion numbers entry is listed as “significantly reduced”. In the experiment with TOV-21G cells, the “cell arrest at G2/M-phase” value is on record as 52.3% and the cell death amounted to 23.4%. Also, the DNA synthesis entry in experiment [4] is recorded as “inhibition”. Also, the cell mobility rate result in experiment [5] is listed as “decreased”. Moreover, the “overall activity (tunnel entries in five minutes)” value in [6] is given as “more active”. Moreover, the cell proliferation rate entry in experiment [7] is given as “decreased”.
In the case of `COc1ncc(-c2ccc3nccc(-c4ccnnc4)c3c2)cc1NS(=O)(=O)c1ccc(F)cc1F` [GSK2126458, 2,4-difluoro-N-[2-methoxy-5-[4-(4-pyridazinyl)-6-quinolinyl]-3-pyridinyl]benzenesulfonamide], in experiment [1], the abdominal retraction threshold entry was “higher” and the paw withdrawal threshold entry was “higher”. Also, in experiment [3], the “small peritoneal macrophages in abdominal cavity” value is “significantly reduced” and the “neutrophils in abdominal cavity” value was “significantly reduced”. In addition, the lesion numbers result with endometriosis lesions is “significantly reduced”. For the same compound, the DNA synthesis entry in experiment [4] is reported as “inhibition”. Also, the cell mobility rate result in experiment [5] is on record as “decreased”. In addition, in experiment [8], the cell cycle arrest entry is listed as “cell arrest at G1-phase” and the “cells of sub-G1 phase (implying cell death)” value is recorded as “increased”. Besides, the “overall activity (tunnel entries in five minutes)” value in experiment [6] was “more active”. For the same compound, the cell proliferation rate result in [7] is reported as “decreased”.
